This passage reports Ki and inhibition results from ChEMBL document CHEMBL4376861, “Docking Finds GPCR Ligands in Dark Chemical Matter” (J Med Chem, 2020).

As usually defined, the Ki is the equilibrium dissociation constant of an inhibitor or competing ligand from its target. Read a low Ki as higher affinity. As a reminder, the inhibition is the share of the control response that was lost under treatment.

For assay [1], the target named is T1, Adenosine receptor A2a (Homo sapiens, UniProt P29274). In words: Displacement of [3H]ZM241385 from adenosine A2A receptor in human HeLa cell membranes incubated for 30 mins by scintillation counting method. (Displacement assays read how much labelled ligand stays bound in the presence of the test substance.)
T1 sequence (P29274 whole entry): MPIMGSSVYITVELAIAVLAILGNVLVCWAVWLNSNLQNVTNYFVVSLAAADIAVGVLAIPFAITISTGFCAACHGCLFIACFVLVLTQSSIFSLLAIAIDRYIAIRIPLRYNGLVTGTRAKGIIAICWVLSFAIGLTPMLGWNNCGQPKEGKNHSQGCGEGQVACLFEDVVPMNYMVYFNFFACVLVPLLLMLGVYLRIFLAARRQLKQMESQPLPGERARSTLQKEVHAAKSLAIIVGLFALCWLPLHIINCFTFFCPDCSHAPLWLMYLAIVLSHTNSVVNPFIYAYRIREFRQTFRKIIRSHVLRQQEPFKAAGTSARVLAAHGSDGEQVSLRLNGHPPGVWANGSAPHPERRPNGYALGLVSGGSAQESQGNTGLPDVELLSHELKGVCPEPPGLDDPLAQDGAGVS
In assay [2] the target is T2, D(4) dopamine receptor (Homo sapiens) (UniProt P21917).
T2 sequence (whole entry): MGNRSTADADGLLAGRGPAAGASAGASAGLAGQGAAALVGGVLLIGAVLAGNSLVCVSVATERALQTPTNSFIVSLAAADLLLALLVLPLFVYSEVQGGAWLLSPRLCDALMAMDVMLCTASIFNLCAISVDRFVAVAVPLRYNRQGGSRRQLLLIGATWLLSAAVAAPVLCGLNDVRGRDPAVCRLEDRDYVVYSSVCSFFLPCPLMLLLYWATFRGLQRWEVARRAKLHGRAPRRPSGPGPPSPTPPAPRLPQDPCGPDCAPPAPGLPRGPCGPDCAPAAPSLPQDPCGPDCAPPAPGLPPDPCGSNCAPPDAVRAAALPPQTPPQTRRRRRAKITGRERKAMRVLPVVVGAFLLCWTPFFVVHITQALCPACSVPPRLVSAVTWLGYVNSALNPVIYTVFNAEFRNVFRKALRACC
In words: Displacement of [3H]spiperone from human dopamine D4 receptor expressed in cell membranes at 10 uM incubated for 60 mins by scintillation counting method relative to control.

Another assay deals with T3, Adenosine receptor A1 (Homo sapiens, UniProt P30542).
T3 sequence (P30542 whole entry): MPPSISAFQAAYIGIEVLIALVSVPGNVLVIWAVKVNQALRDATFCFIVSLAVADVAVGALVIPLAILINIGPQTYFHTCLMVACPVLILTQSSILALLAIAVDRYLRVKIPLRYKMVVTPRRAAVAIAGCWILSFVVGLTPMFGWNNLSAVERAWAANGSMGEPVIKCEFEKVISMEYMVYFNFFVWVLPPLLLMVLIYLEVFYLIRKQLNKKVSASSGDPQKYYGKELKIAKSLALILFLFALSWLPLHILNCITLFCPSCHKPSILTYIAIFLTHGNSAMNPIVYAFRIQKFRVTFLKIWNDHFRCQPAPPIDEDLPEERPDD
In words: Displacement of [3H]DPCPX from human adenosine […] receptor expressed in […] cell membranes incubated for 60 mins by scintillation counting method.

The target in assay [3] is T4, D(3) dopamine receptor (Homo sapiens, UniProt P35462). As to the kind of experiment: Displacement of [3H]spiperone from human dopamine D3 receptor expressed in cell membranes at 10 uM incubated for 60 mins by scintillation counting method.
T4 sequence (P35462 whole entry): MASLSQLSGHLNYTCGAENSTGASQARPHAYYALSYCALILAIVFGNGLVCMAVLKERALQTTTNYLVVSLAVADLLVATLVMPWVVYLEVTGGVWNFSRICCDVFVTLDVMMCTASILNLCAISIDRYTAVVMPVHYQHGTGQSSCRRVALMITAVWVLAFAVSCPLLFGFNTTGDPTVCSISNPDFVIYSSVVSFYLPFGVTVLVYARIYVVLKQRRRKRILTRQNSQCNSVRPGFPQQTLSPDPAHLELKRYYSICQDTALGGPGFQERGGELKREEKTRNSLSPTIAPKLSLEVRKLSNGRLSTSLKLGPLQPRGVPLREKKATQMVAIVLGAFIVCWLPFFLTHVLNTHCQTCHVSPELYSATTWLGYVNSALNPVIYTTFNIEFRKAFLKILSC
Assay [4] deals with T1, Adenosine receptor A2a. In words: Displacement of [3H]ZM241385 from adenosine A2A receptor in human HeLa cell membranes at 10 uM incubated for 30 mins by scintillation counting method relative to control.
In the next assay the target is T5, D(4) dopamine receptor (Homo sapiens, UniProt P21917).
T5 sequence (P21917 whole entry): T2 sequence (whole entry)
As to the kind of experiment: Displacement of [3H]spiperone from human dopamine D4 receptor expressed in cell membranes incubated for 60 mins by scintillation counting method.

Assay [5] has as its target T6, Adenosine receptor A1 (Homo sapiens) (UniProt P30542).
T6 sequence (whole entry): T3 sequence (P30542 whole entry)
As to the kind of experiment: Displacement of [3H]DPCPX from human adenosine […] receptor expressed in […] cell membranes at 10 uM incubated for 60 mins by scintillation counting method relative to control.

In assay [6] the target is T4, D(3) dopamine receptor. As to the kind of experiment: Displacement of [3H]spiperone from human dopamine D3 receptor expressed in cell membranes incubated for 60 mins by scintillation counting method.

For `Nc1nc(-c2ccccc2)nn1C(=O)c1ccco1`, the Ki at Adenosine receptor A2a [1] turned out to be 130 nM; at Adenosine receptor A1 it was 36 nM. In addition, the inhibition in assay [2] worked out at 7%; on D(3) dopamine receptor [3] it was 4%.
Turning to `Cc1cccc2cc(CNCc3ccccc3)c(Cl)nc12`, the inhibition (at Adenosine receptor A2a [4]; in assay [5]) was 13% each time. Besides, the values for the Ki on D(4) dopamine receptor and on D(3) dopamine receptor [6] were 550 nM and 1.6 µM, respectively.
As to `CCOC(=O)c1nc(N)c(=O)n(-c2ccccc2)n1`, the Ki at Adenosine receptor A2a [1] amounted to 4900 nM; on Adenosine receptor A1, 2200 nM. The values for the inhibition (in assay [2]; on D(3) dopamine receptor [3]) were 12% and 6%, respectively.
Consider `Cc1ccc(C(=O)C2CCN(CC(=O)NC3CCCC3)CC2)cc1`, for which the figures for the inhibition (at Adenosine receptor A2a [4]; in assay [5]) were 7% and 19%, respectively. Besides, the Ki is 420 nM at D(4) dopamine receptor and 11 µM on D(3) dopamine receptor [6].
